What all share (type): cell-based
Series [1] concerns L-929 (mouse fibroblasts). Briefly: antiproliferative assay, L-929.
The subject of a further series is K-562 (human leukaemia). The series is described as follows: antiproliferative assay, K-562.
In series [2] the test system is HeLa (human cervix carcinoma). The series is described as follows: cytotoxicity assay, HeLa.
Series [3] relates to PC-3 cells (prostate cancer). The series is described as follows: in vitro cytotoxic assay, PC-3.
Series [4] concerns MCF-7 cells (breast cancer). The series is described as follows: in vitro cytotoxic assay, MCF-7.

The results in this text go back to paper PMC4058769 (Organic & biomolecular chemistry, 2009).

Molecules are shown by their SMILES.

By GI50 is commonly meant the concentration that inhibits growth by half. What is called CC50 is the concentration giving 50% cytotoxicity. As for `CCC(=O)O[C@H]1[C@H](C)O[C@@H](O[C@H]2[C@H](N(C)C)[C@@H](O)[C@H](O[C@H]3[C@@H](CC=O)C[C@@H](C)[C@@H](O)/C=C/C=C/C[C@@H](C)OC(=O)C[C@@H](O)[C@@H]3OC)O[C@@H]2C)C[C@@]1(C)O` [compound 1, leucomycin A7], the “antiproliferative activity in L-929 (in words)” value in series [1] is given as “not active at all”. Further, the GI50 in series [1] (read-out: L-929 GI50, antiproliferative activity, L-929 mouse fibroblasts) is over 66 µM; with K-562 (human leukaemia) (read-out: K-562 GI50, antiproliferative activity, K-562 human leukaemia), over 66 µM. In the series on K-562 (human leukaemia), the “antiproliferative activity in K-562 (in words)” value was “not active at all”. Also, in series [2], the “cytotoxic activity in HeLa (in words)” value was “not active at all”. The CC50 in series [2] (read-out: HeLa CC50, cytotoxicity, HeLa human cervix carcinoma) was over 66 µM. In series [3], the “cytotoxic activity in PC-3 (in words)” value is recorded as “not active at all”. Besides, the “cytotoxic activity in MCF-7 (in words)” value in series [4] is “not active at all”.
